# Bridge positions count the residues as written; N and C are the ends. Square brackets hold non-standard residues; d marks the D form. Peptide text beside a SMILES is read from it. R8 = C=CCCCCCC[C@@](C)(N)C(=O)O; S5 = C=CCCC[C@](C)(N)C(=O)O; Pra = C#CC[C@H](N)C(=O)O
# Experiments:
# APC/C [1] = molecular target: T1, APC/C (Homo sapiens, UniProt Q9NYG5); test: In vitro APC/C ubiquitylation assay with APC/C immunoprecipitated from metaphase HeLa cells; format: biochemical; parameters: immunoprecipitated APC/C from metaphase-synchronized HeLa cells; endogenous in cells; host or cells: metaphase-synchronized HeLa cells (APC/C); the E2 is recombinant; settings: 100 μM, end-point assay, UBE2C as E2, dye-labeled securin, in-gel scanning, n = 5
# Description: To assess prevention of RING activation by our E2 mimetics, and thus validate our design strategy, we employed in vitro APC/C ubiquitylation assays containing immunoprecipitated APC/C from metaphase-synchronized HeLa cells, recombinant UBA1 (E1), UBE2C (E2), ubiquitin, and dye-labeled metaphase APC/C substrate securin (Figure A). […] To immobilize BH3 to beads, we used our models to introduce propargylglycine (Pra) (Pra-BH3) at the N-term and thus enable side chain conjugation with azide agarose beads by click chemistry (Figure E). […] Pra-BH3 also precipitated other RING-type E3 including BRCA1, BMI1, MDM2, c-CBL and c-IAP1 (Figure F). However, except for c-CBL and MDM2, those interactions were weaker, as judged by the degree of enrichment over the input of the assay (Figure G).
# APC/C-dependent ubiquitination reactions were performed at 30 °C in 30 mM HEPES pH 7.4, 175 mM NaCl, 8 mM MgCl2, 0.05% Tween-20, 1 mM DTT and 5% glycerol and contained 20 nM recombinant APC/C, 340 nM CDC20, 46 nM GST-UBA1, 340 nM UBE2C (alternatively 400 nM UBE2D, 280 nM UBE2S), 21 μM His6-ubiquitin or if it is indicated 21 μM methylated-ubiquitin (BostonBiochem), 2.6 mM ATP, 10 mM phosphocreatine, and 11 μM creatine kinase. […] Detection of fluorescently labeled substrates was done by a quantitative near-infrared scanning system, Odyssey.
# APC11 = molecular target: T2, APC11 (Homo sapiens, UniProt Q9NYG5); test: Pull-down binding assay from HeLa cell extract, Western blot; settings: peptide clicked to azide agarose beads, 2 mg HeLa extract, 4 °C, 2 h, n = 3
# T2 construct: endogenous in cells; host or cells: HeLa
# Method: (§1) For protein transfer, a 0.45 μm Immobilon-FL PVDF membrane (Merck Millipore) was used. The membrane was activated in ethanol and then transferred to Blotting buffer (50 mM SDS-MOPS, 50 mM Tris base, 0.1% SDS, 1 mM EDTA, and 20% EtOH). The proteins were transferred using a wet transfer for 1.5 h at 400 mA. Subsequently, the membrane was incubated with the blocking solution, 10% milk in PBS-T (0.02% Tween-20 in PBS), for 1 h at room temperature. To detect proteins of interest, the membrane was incubated with primary antibodies overnight at 4° C, followed by 3 washes for 10 min with PBS-T and incubation with IRDye-labeled secondary antibodies for 1 h. Prior to detection, the membrane was washed twice with PBS-T for 10 min and once with PBS for 10 min. The detection was done using the quantitative near-infrared scanning system Odyssey (LI-COR Biosciences).
# (§2) HeLa cell pellet was resuspended in the extraction buffer (30 mM HEPES pH 7.5, 175 mM NaCl, 2.5 mM MgCl2, 0.25% NP40, 10% glycerol, 1 mM DTT supplied with complete protease inhibitor cocktail (Roche), PhosSTOP phosphatase inhibitors (Roche), 1 mM PMSF, 10 μM MG132) and incubated for 20 min on ice, followed by centrifugation to clear the lysate for 15 min at 4 °C 16,100 g. In the meantime, inhibitor molecules containing the propargyl-Gly-OH (Pra) chemical group were covalently attached to the azide agarose resin (Jena Bioscience) by Cu(I)-catalyzed azide–alkyne cycloaddition reaction. Specifically, the inhibitor molecules were mixed with azide agarose resin in a ratio of 0.125 μmol inhibitor/20 μL agarose resin. The reaction was catalyzed by 0.1 mM CuSO4, 0.5 mM THPTA (Sigma-Aldrich), and 5 mM Sodium ascorbate and was performed on the rotating wheel for 30 min at room temperature in a volume of 1 mL. Subsequently, the resin was washed five times with extraction buffer. The inhibitor-agarose resin was added to 2 mg of HeLa cell extract and incubated at 4 °C for 2 h. Afterward, the resin was washed four times with extraction buffer. Pull-down proteins were eluted by incubation with prewarmed 1x LDS sample buffer for 10 min at room temperature, followed by taking supernatant supplemented with 100 mM DTT and boiling for 10 min. Afterward, SDS PAGE and Western blot analyses were performed to detect the indicated proteins.
# BMI1 = molecular target: T3, BMI1 (Homo sapiens, UniProt P35226); test: as above; settings: peptide clicked to azide agarose beads, n = 3
# T3 construct: endogenous in cells; host or cells: HeLa
# T3 sequence (P35226 1-326): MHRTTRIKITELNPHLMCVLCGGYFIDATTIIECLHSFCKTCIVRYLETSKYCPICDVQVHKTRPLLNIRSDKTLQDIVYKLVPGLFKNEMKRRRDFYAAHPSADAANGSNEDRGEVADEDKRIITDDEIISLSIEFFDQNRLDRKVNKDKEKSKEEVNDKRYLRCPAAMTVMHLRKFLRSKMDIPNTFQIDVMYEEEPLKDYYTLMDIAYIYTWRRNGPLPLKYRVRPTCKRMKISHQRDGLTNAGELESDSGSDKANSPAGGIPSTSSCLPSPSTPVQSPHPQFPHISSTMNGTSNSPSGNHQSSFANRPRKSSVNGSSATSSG
# Method: as §1, §2
# BRCA1 = molecular target: T4, BRCA1 (Homo sapiens, UniProt P38398); test: as above; settings: peptide clicked to azide agarose beads, n = 3
# T4 construct: endogenous in cells; host or cells: HeLa
# Method: as §1, §2
# MDM2 = molecular target: T5, MDM2 (Homo sapiens, UniProt Q00987); test: as above; settings: peptide clicked to azide agarose beads, n = 3
# T5 construct: endogenous in cells; host or cells: HeLa
# Method: as §1, §2
# RBX1 = molecular target: T6, RBX1 (Homo sapiens, UniProt P62877); test: as above; settings: n = 3; for binding to RBX1, Pra-H1 versus Pra-BH3: pull-down with metaphase extracts
# T6 construct: endogenous in cells; host or cells: HeLa
# Method: as §1, §2
# c-CBL = molecular target: T7, c-CBL (Homo sapiens, UniProt P22681); test: as above; settings: peptide clicked to azide agarose beads, n = 3
# T7 construct: endogenous in cells; host or cells: HeLa
# Method: as §1, §2
# c-IAP1 = molecular target: T8, c-IAP1 (Homo sapiens, UniProt Q13490); test: as above; settings: peptide clicked to azide agarose beads, n = 3
# T8 construct: endogenous in cells; host or cells: HeLa
# Method: as §1, §2
# UBE2S = molecular target: T9, UBE2S (Homo sapiens, UniProt Q16763); test: In vitro E2 activity assay (autoubiquitination); format: biochemical; settings: 100 μM, 45 min, 30 °C, Blue Silver staining, n = 3
# T9 construct: gift of Sonja Lorenz (MPI, Göttingen, Germany)
# T9 sequence (Q16763 1-222): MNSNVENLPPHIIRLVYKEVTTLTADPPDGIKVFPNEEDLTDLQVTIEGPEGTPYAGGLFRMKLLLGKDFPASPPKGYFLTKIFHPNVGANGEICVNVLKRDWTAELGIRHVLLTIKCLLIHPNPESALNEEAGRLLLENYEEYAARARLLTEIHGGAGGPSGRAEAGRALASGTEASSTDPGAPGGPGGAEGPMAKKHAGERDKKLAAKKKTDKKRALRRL
# Method: UBE2C and UBE2S activity assays were performed at 30 °C in 50 mM HEPES pH 7.4, 100 mM KCl, 9 mM MgCl2, and contained 0.6 μM UBA1 (E1), 8 μM UBE2C or UBE2S, 60 μM His6-ubiquitin, and 5.6 mM ATP. It should be noted that wild-type UBE2C and UBE2S were used. The reaction was done in a volume of 15 μL, and it was quenched after 45 min with the LDS sample buffer supplemented with 100 mM DTT and subjected to SDS-PAGE followed by Blue Silver staining. Imaging of Blue Silver-stained gels was done by a quantitative near-infrared scanning system, Odyssey. It should be noted that reactions without ATP were first preincubated for 5 min at room temperature.
# APC/C [2] = molecular target: T1, APC/C; test: In vitro APC/C ubiquitination assay, fully reconstituted with recombinant APC/C, substrate securin; format: biochemical; parameters: made in house; host or cells: SF9 insect cells, co-infected with two baculoviruses (bacmids a gift from David Barford); settings: 25 μM, lowest concentration of titration 25-100 μM, n = 3
# Method: Next, we tested the APC/C inhibitory proficiency of H1-6 in fully reconstituted activity assays with recombinant APC/C in comparison to BH3 and the commercially available APC/C inhibitor TAME. To account for mechanistic differences in APC/C inhibition between TAME (inhibits CDC20 binding) and ^i APC11 (inhibits E2 binding), all inhibitors, E2s and CDC20 were added simultaneously to APC/C. […] We observed no difference for UBE2C and only a small (∼10%) decrease in UBE2S autoubiquitylation compared to control reactions (Figure S16B–D).
# To quantify the inhibitory effectiveness of H6, its IC50 was determined. To this end, we performed in vitro APC/C ubiquitination assays in the presence of H6 titrated from 0.01 to 100 μM (Figure S17B). […]
# APC/C-dependent ubiquitination reactions were performed at 30 °C in 30 mM HEPES pH 7.4, 175 mM NaCl, 8 mM MgCl2, 0.05% Tween-20, 1 mM DTT and 5% glycerol and contained 20 nM recombinant APC/C, 340 nM CDC20, 46 nM GST-UBA1, 340 nM UBE2C (alternatively 400 nM UBE2D, 280 nM UBE2S), 21 μM His6-ubiquitin or if it is indicated 21 μM methylated-ubiquitin (BostonBiochem), 2.6 mM ATP, 10 mM phosphocreatine, and 11 μM creatine kinase. […] Detection of fluorescently labeled substrates was done by a quantitative near-infrared scanning system, Odyssey. […]
# T6 sequence (P62877 whole entry): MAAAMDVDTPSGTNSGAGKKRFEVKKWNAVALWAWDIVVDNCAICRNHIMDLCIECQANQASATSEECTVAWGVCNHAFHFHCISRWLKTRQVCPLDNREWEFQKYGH
# T8 sequence (Q13490 whole entry): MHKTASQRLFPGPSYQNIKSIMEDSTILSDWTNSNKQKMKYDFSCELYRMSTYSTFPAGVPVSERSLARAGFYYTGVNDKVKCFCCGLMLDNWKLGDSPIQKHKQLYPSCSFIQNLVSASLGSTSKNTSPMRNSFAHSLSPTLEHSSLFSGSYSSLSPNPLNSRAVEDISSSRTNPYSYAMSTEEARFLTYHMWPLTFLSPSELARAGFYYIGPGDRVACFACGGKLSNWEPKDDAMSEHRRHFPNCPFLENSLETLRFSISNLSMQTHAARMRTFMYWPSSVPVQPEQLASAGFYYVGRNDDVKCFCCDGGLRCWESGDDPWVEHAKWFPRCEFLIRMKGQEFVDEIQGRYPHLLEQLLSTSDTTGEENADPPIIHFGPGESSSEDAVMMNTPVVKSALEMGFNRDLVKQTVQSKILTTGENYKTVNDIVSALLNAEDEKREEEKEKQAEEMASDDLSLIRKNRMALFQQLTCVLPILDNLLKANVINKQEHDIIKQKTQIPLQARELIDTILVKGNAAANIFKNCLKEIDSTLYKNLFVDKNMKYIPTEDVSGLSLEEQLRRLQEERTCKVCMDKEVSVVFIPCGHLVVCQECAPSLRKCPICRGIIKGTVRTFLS
# T5 sequence (Q00987 whole entry): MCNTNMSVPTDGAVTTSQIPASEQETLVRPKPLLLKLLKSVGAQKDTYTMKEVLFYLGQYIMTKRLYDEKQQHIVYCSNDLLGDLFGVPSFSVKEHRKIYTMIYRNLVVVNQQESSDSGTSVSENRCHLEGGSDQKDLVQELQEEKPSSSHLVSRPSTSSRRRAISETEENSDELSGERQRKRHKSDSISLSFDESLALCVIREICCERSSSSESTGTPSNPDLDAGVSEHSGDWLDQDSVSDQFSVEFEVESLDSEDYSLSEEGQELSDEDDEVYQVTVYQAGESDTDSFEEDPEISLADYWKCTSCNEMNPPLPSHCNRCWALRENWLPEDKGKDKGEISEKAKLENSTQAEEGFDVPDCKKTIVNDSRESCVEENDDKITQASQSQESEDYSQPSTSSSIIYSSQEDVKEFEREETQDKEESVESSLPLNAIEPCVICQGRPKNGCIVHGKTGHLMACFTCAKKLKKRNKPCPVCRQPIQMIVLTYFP
# T4 sequence (P38398 whole entry): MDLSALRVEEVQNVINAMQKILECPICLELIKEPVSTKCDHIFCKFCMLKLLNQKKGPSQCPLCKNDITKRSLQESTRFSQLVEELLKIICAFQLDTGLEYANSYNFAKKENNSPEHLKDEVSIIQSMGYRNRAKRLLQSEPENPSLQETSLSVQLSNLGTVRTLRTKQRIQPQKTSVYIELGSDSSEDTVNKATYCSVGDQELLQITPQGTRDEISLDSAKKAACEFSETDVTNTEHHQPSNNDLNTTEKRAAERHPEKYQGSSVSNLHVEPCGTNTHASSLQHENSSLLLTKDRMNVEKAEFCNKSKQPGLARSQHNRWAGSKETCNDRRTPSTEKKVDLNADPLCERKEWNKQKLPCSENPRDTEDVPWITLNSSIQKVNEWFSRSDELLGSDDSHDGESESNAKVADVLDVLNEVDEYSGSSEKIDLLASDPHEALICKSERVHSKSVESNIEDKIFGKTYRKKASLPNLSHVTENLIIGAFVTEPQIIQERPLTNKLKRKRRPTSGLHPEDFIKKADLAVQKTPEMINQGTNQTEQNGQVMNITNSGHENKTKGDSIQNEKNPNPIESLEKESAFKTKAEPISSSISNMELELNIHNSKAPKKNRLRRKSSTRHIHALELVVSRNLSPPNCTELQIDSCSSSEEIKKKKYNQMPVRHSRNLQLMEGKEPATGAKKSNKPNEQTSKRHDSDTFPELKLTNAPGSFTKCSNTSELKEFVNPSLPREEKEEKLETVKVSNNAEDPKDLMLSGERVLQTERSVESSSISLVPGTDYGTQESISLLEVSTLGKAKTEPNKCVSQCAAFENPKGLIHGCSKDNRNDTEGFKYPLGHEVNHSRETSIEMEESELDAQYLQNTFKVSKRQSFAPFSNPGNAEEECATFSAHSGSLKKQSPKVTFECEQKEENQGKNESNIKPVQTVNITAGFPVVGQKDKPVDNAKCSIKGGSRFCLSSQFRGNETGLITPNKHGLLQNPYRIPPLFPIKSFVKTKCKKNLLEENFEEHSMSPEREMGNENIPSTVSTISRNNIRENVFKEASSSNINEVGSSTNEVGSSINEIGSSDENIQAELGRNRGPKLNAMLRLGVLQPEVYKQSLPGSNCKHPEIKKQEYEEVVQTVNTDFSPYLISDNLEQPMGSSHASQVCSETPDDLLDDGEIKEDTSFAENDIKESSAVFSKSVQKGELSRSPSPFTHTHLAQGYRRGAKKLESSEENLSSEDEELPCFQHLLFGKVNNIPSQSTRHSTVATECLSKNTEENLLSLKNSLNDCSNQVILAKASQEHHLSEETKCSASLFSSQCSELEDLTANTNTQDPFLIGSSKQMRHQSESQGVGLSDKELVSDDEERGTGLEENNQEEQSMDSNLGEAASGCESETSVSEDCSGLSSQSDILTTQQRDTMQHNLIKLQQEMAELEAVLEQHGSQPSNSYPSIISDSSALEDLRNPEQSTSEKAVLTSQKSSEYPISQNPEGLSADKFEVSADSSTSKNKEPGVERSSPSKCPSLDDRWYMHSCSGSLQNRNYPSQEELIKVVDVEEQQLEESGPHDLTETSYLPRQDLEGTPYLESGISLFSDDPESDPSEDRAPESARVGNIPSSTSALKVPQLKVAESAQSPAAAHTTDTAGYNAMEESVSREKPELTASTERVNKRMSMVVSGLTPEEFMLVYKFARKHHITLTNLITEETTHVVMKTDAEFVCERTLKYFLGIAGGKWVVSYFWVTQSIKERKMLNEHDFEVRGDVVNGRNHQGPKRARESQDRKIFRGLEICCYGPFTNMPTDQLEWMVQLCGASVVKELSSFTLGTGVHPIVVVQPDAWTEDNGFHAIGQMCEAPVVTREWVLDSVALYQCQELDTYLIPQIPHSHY
# T2 sequence (Q9NYG5 whole entry): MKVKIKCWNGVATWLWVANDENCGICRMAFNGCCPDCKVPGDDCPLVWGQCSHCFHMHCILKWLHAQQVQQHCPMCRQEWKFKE
molecule,measurement,setting,value
C[C@@H](O)[C@H](NC(=O)[C@H](CCCNC(=N)N)NC(=O)[C@@H]1CSSC[C@H](NC(=O)[C@H](CCCNC(=N)N)NC(=O)CN)C(=O)N[C@@H](Cc2c[nH]cn2)C(=O)N[C@@H](Cc2c[nH]c3ccccc23)C(=O)NCC(=O)N2CCC[C@H]2C(=O)N[C@@H](CCC(=O)O)C(=O)N[C@@H]([C@@H](C)O)C(=O)N[C@@H](Cc2ccccc2)C(=O)N[C@@H](Cc2c[nH]c3ccccc23)C(=O)N1)C(=O)O [BH4] (H-GRCHWGPETFWCRT-OH; disulfide 3-12),securin ubiquitylation compared to control reactions,APC/C [1],no such effect
"Ac-[Pra]RCHWGPRTFWCR-NH2 (disulfide 3-12 (inferred); SMILES C#CC[C@H](NC(C)=O)C(=O)N[C@@H](CCCNC(=N)N)C(=O)N[C@H]1CSSC[C@@H](C(=O)N[C@@H](CCCNC(=N)N)C(N)=O)NC(=O)[C@H](Cc2c[nH]c3ccccc23)NC(=O)[C@H](Cc2ccccc2)NC(=O)[C@H]([C@@H](C)O)NC(=O)[C@H](CCCNC(=N)N)NC(=O)[C@@H]2CCCN2C(=O)CNC(=O)[C@H](Cc2c[nH]c3ccccc23)NC(=O)[C@H](Cc2c[nH]cn2)NC1=O) [Pra-BH3, BH3 with propargylglycine at the N-term for click chemistry]",enrichment of APC11 on beads,APC11,strong enrichment
same,"precipitation of BMI1 on beads, enrichment over input",BMI1,weaker
same,"precipitation of BRCA1 on beads, enrichment over input",BRCA1,weaker
same,precipitation of MDM2 on beads,MDM2,precipitated
same,enrichment of RBX1 on beads,"RBX1; peptide clicked to azide agarose beads, 2 mg HeLa extract, 4 °C, 2 h",not
same,"binding to RBX1, Pra-H1 versus Pra-BH3",RBX1,very weak and unchanged
same,precipitation of c-CBL on beads,c-CBL,precipitated
same,"precipitation of c-IAP1 on beads, enrichment over input",c-IAP1,weaker
CC[C@H](C)[C@@H]1NC(=O)[C@H](CCC(=O)O)NC(=O)[C@H](CCCCN)NC(=O)[C@H]([C@@H](C)CC)NC(=O)[C@](C)(NC(=O)[C@H](Cc2c[nH]c3ccccc23)NC(=O)[C@H](Cc2c[nH]c3ccccc23)NC(=O)[C@H](CCC(=O)O)NC(C)=O)CCCCCCC=CCCC[C@@](C)(C(=O)N[C@@H](CCCNC(=N)N)C(=O)N[C@@H](CCCNC(=N)N)C(=O)N[C@@H](C)C(N)=O)NC(=O)[C@H](CCCNC(=N)N)NC(=O)[C@H](CCC(N)=O)NC1=O [H6] (Ac-EWW[R8]IKEIQR[S5]RRA-NH2; staple 4-11),decrease in UBE2S autoubiquitylation compared to control reactions,UBE2S,~10%
same,reduction of APC/C activity toward securin,APC/C [2],more than 80%
C#CC[C@H](NC(=O)[C@@H]1CCCN1C(=O)[C@H](Cc1c[nH]c2ccccc12)NC(=O)[C@H](CCCNC(=N)N)NC(C)=O)C(=O)N[C@@]1(C)CCCC=CCCC[C@@](C)(C(=O)N[C@@H](CCC(N)=O)C(=O)N[C@H](C(=O)N[C@@H](CCCNC(=N)N)C(=O)N[C@@H](CCCNC(=N)N)C(=O)N[C@@H](Cc2c[nH]c3ccccc23)C(N)=O)C(C)C)NC(=O)[C@H](CC(=O)O)NC(=O)[C@H](Cc2c[nH]c3ccccc23)NC(=O)[C@H](CCCCN)NC1=O [Pra-H1] (Ac-RWP[Pra][S5]KWD[S5]QVRRW-NH2; staple 5-9),"binding to RBX1, Pra-H1 versus Pra-BH3",RBX1,very weak and unchanged

# Source: publication PMC12169662, “De Novo-Designed APC/C Inhibitors Provide a Rationale for Targeting RING-Type E3 Ubiquitin Ligases” (Journal of Medicinal Chemistry, 2025)
